Where two headings read alike, the source gives them in different places.
Tests used:
[1] = test system: JWA protein; settings: 10 μM, 48 h
From the text: (§1) A HER2-positive BGC823 human gastric cancer cell line was established in which JWA gene was deleted using Crisp/cas9 technology. […] After protein extraction, western blotting technology was used to determine the expression levels of JWA and HER2 proteins in the wild-type cell line (JWA WT) and the JWA-knockout cell line (JWA KO).

[2] = test system: HER2 protein; test: Western blot in BGC823 gastric cancer cells (JWA WT and JWA KO), HER2; type: cell-based, human; settings: 10 μM, 48 h
From the text: as §1

[3] = test system: HER2 protein; test: Laser confocal immunofluorescence in HER2-positive breast cancer cells, HER2 level and localization; type: cell-based, human; settings: immunofluorescence, 0, 1, 10 μM, 24 h
Procedure: (§2) The cells were inoculated into a 35 mm glass bottom dish, treated with different concentrations (0, 1, and 10 μM) of JAC1 for 24 h, fixed with methanol for 15 min, washed three times with PBST, blocked with normal sheep serum for 1 h, and incubated in primary antibody overnight at 4° C. The cells were then washed three times with PBST, incubated in fluorescent secondary antibody and 4′,6-diamidino-2-phenylindole (DAPI), and photographed using a laser confocal scanning microscopy.

[4] = test system: JWA protein; test: Laser confocal immunofluorescence in HER2-positive breast cancer cells, JWA; type: cell-based, human; settings: immunofluorescence, 0, 1, 10 μM, 24 h
Procedure: as §2

[5] = test system: BT474 cells; settings: BT474, Transwell, 0, 1, and 10 μL of JAC1, 12 h
Procedure: (§3) BT474 and SKBR3 cells in the logarithmic growth phase were transferred into six-well plates at the cell density of 40%-50%. After the cells adhered to the walls of the plates, the cells were respectively incubated in […] of JAC1. Spreading gel in Transwell chamber: the day before the assay, a 24-well plate and a plurality of Transwell chambers were prepared, and 1 mg/mL fibronectin (FN) mother liquor was diluted 10 times to a final concentration of 100 μg/mL. The bottom of each Transwell chamber was coated with 50 μL of FN, placed on a clean bench to air-dry for 2 h, and cultured in an incubator overnight.
(§4) On the day of the assay, the cultured cells were digested with 0.25% trypsin and resuspended in a serum-free medium in which the number of the cells were counted and the cell density was adjusted to 3×10^5 cells/mL. 100 μL of serum-free medium containing the cells was transferred onto the upper layer of each Transwell chamber, and 600 μL of mixture containing 10% FBS and 100 ng/mL EGF medium was added to the lower layer of each Transwell chamber. After incubation in an incubator for 12 h, the Transwell chambers were taken out, fixed with 95% methanol for 20 min, washed three times with phosphate-buffered saline (PBS), stained with crystal violet dye for 30 min, and washed three times with PBS. […]

[6] = test system: SKBR3 cells; settings: SKBR3, Transwell, 0, 1, and 10 μL of JAC1, 12 h
Procedure: as §3, §4

[7] = test system: JWA protein; test: Western blot of subcutaneous BT474 tumors, JWA; type: in vivo, BALB/c nude mice; settings: treatment group
Procedure: BT474 human breast cancer cells in the logarithmic growth phase were suspended in ice-cold suspension buffer for a final concentration of 5×10^6/100 μL, followed by subcutaneous transplantations of the suspended cells into BALB/c nude mice. When the tumor grown up to 75-125 mm^3, the BALB/c nude mice were randomly divided into five equal groups, including a blank control group (Mock), a solvent control group (Vehicle), a 50 mg/kg JAC1 treatment group, a 100 mg/kg JAC1 treatment group, and a positive control group treated with Pacilitaxel and Trastuzumab (TH). Dose and administration: JAC1 was injected intraperitoneally into mice once daily; the dosage of Trastuzumab was 10 mg/kg injected intraperitoneally twice a week; the dosage of Pacilitaxel was 20 mg/kg injected intraperitoneally once a week. From the day of administration, mouse body weights and tumor diameters were measured every other 2 days, and the tumor volume was calculated using an equation. When the mice reached a humane endpoint at which the tumor volume increased to 2500-3000 mm^3, the research based on the mouse models was terminated and the laboratory mice were anesthetized and euthanized in a timely manner to alleviate animal suffering and perform the statistical analysis. […]

[8] = test system: JWA protein; test: Western blot in HER2-positive breast cancer cells, JWA; type: cell-based, human; settings: increasing concentration, 24 h
Procedure: (§5) The cells in the logarithmic growth phase were routinely digested, and transferred into 6-well plates at the cell density of 40%-50%. The cells were incubated with different concentrations of JAC1 for 24 h, followed by an addition of 0.1 mL of Radioimmunoprecipitation Assay Butter (RIPA, containing 0.5% phenylmethylsulfonyl fluoride (PMSF)) for protein extraction. After centrifugation at 12,000×g for 15 min, the supernatant was collected, and brought to a determination of protein concentration and a boil. Protein electrophoresis was performed with 10% polyacrylamide gel. The protein was transferred into the gel wells for 40 μg protein per well, migrated at 60 V for 30 min, and 90 V for 1.5-2 h. After gel electrophoresis, the protein was transferred by wet method from gel to a PVDF membrane, and blocked with 5% skim milk at room temperature for 1-2 h. The membrane was washed with Tris-Buffered Saline and Tween 20 (TBST, containing 0.1% Tween 20) three times for 5 min each, and incubated in the corresponding primary antibody overnight at 4° C. The membrane was then washed with the TBST (containing 0.1% Tween 20) three times for 5 min each, incubated in the secondary antibody at room temperature for 1-2 h, and washed with the TBST (containing 0.1% Tween 20) eight times for 5 min each. […]

[9] = H&E staining, tumor-bearing nude mice
From the text: A model of nude mice subcutaneously transplanted with human breast cancer cells was built with reference to the method of Example 16. The laboratory mice that have been modeled were anesthetized and euthanized to observe and determine whether damage occurred to the major organs of laboratory mice. The major organs tissues from the laboratory mice, such as heart, liver, spleen, lung, kidney, and brain, were fixed in formalin solution using conventional methods. After paraffin embedding and tissue sectioning, the thick tissue sections were stained with H&E to observe whether the organ tissues were normal in morphology.

[10] = Serum biochemical indexes in tumor-bearing nude mice; settings: particularly 100 mg/kg, vs blank control
From the text: A model of nude mice subcutaneously transplanted with human breast cancer cells was built with reference to the method of Example 16. The laboratory mice that have been modeled were anesthetized to determine whether damage occurred to the major organs in the mouse body. Whole blood was collected from the anesthetized mice, and the serum was separated and used to detect a change in the serum biochemical indexes using an automatic biochemistry analyzer.

[11] = test system: promoter of JWA gene; test: Luciferase reporter gene under control of JWA gene promoter in HBE cells (high-throughput screening); type: cell-based, human; settings: for fluorescence intensity of reporter gene: 48 h
From the text: High-throughput screening (HTS) was used to identify the human bronchial epithelial (HBE) cells stably transfected with a DNA construct with a luciferase gene under control of a 2,000 bp long promoter of JWA gene.
FIG. 1 is a sequence containing the 2000 bp promoter sequence of JWA gene that was used for a luciferase reporter gene plasmid construction.

[12] = test system: HER2 protein; test: Western blot in HER2-positive breast cancer cells, HER2; type: cell-based, human; settings: increasing concentration, 24 h
Procedure: as §5

## COc1cccc2sc(Nc3nc4c(F)cccc4s3)nc12 [JAC1, 4-fluoro-N-(4-methoxybenzene (d)thiazole-2-group) benzene (d) thiazole-2-amine]
[1]; BGC823 JWA KO
  JWA expression level: no effect
[1]; BGC823 JWA WT
  JWA protein level: significantly increase JWA protein level
[2]; BGC823 JWA KO
  HER2 expression level: no effect
[2]; BGC823 JWA WT
  HER2 expression: repress HER2 expression
[3]
  HER2 protein level: HER2 protein level reduced
  cellular localization of HER2 protein: no effect on the localization of HER2 protein in the cell membrane
[4]
  JWA protein level: JWA protein level increased
[5]
  migratory ability: effectively inhibit the migratory ability
[6]
  migratory ability: effectively inhibit the migratory ability
[7]
  JWA protein level in tumor: significantly increased
[8]
  JWA protein level: JWA protein level increased
[9]
  morphology of major organs (heart, liver, spleen, lung, kidney, brain): no obvious anomalies were observed
[10]
  alanine transaminase (ALT): significant decreases
  aspartate transaminase (AST): significant decreases
  creatine kinase (CK): significant decreases
  creatine kinase isoenzyme (CKMB): significant decreases
  superoxide dismutase (SOD): significantly increased
  triglyceride (TG): significant decreases
[11]; 0.05 μg/mL
  fluorescence intensity of reporter gene: 13560.00
[11]; 0.10 μg/mL
  fluorescence intensity of reporter gene: 16200.00
[11]; 0.21 μg/mL
  fluorescence intensity of reporter gene: 21975.00
[11]; 0.41 μg/mL
  fluorescence intensity of reporter gene: 28186.67
[11]; 0.83 μg/mL
  fluorescence intensity of reporter gene: 38760.00
[11]; 1.65 μg/mL
  fluorescence intensity of reporter gene: 54293.33
[11]; 3.30 μg/mL
  fluorescence intensity of reporter gene: 68080.00
[11]; result in words
  activation of JWA gene: particularly significant effect on activation of JWA gene
[12]
  HER2 protein level: HER2 protein level decreases
